Assay results: paper PMC10714400, “Antimicrobial Peptide–Peptoid Hybrids with and without Membrane Disruption” (ACS Infectious Diseases, 2023)
Converted amounts (≈) assume the structure as drawn. Where a SMILES comes first, the peptide text is derived from it. [ ]: non-standard residue; d: D form. Nleu = CC(C)CNCC(=O)O; Nlys = NCCCCNCC(=O)O

Assays:
[1] = Circular dichroism, α-helical content; assay type: physicochemical; details: 0.1 mg/mL; for CD %α with 5 mM DPC: 10 mM phosphate buffer pH 7.4, 5 mM DPC; for CD %α with 20% TFE: 10 mM phosphate buffer pH 7.4, 20% TFE
[2] = test system: P. aeruginosa PAO1
Method: (§1) Antimicrobial activity was assayed for all the peptide–peptoids against P. aeruginosa PAO1, K. pneumoniae NCTC418, E. coli W3110, A. baumannii ATCC 19606, methicillin-resistant S. aureus COL (MRSA), and for selected peptides on P. aeruginosa PA14 and the polymyxin-B-resistant derivatives PA14 4.13, PA14 4.18, PA14 2P4, as well as the clinical isolates ZEM-1A and ZEM9A, K. pneumoniae OXA-48, S. aureus Newman, Enterobacter cloacae, Stenotrophomonas maltophilia, Burkholderia cenocepacia, and Staphylococus epidermidis. To determine the Minimal Inhibitory Concentration (MIC), the Broth Microdilution method was used.[72] A colony of bacteria was picked and grown in LB medium overnight at 37 °C.
(§2) To each well was finally added 4 μL of the diluted bacterial suspension (see above), corresponding to approximately 5 × 10^5 CFU. For each test, two columns of the plate were kept for sterility control (medium only), growth control (medium with bacterial inoculum, no compound). The positive control, Polymyxin B (starting with a concentration of 16 μg/mL) in MH medium with bacterial inocula, was introduced in the two lines of the plate. The plates were incubated at 37 °C for ca. 18 h under static conditions. Next, 15 μL of 3-(4,5-dimethylthiazol-2-yl)-2,5-diphenyltetrazolium bromide (MTT)[73] (1 mg/mL in sterilized MilliQ deionized water) were added to each well, and the plates were incubated for 20–30 min at room temperature. The minimal inhibitory concentration (MIC) was defined as the lowest concentration of the compound that inhibits the visible growth of the tested bacteria (yellow) with the unaided eye.

[3] = test system: A. baumannii ATCC19606
Method: as §1, §2

[4] = test system: PA14 2P4 (pmrB); details: CSV; […] MH at pH 8.5
Method: as §1, §2

[5] = test system: PA14 4.18 (pmrB); details: […] MH at pH 8.5
Method: as §1, §2

[6] = test system: PA14 4.13 (phoQ); details: CSV; […] MH at pH 8.5
Method: as §1, §2

[7] = test system: S. aureus COL (MRSA)
Method: as §1, §2

[8] = test system: K. pneumoniae NCTC418
Method: as §1, §2

[9] = test system: E. coli W3110
Method: as §1, §2

[10] = test system: S. aureus Newman; details: Table S3; […] MH at pH 8.5
Method: as §1
as §2, with “The plates were incubated at 37 °C for ca. 18 h under static conditions.” left out

[11] = test system: P. aeruginosa PA14; details: Table S3; […] MH at pH 8.5, 16-20 hours at 37 °C
Method: as §1
as §2, with “The plates were incubated at 37 °C for ca. 18 h under static conditions.” left out

[12] = test system: human red blood cells (hRBC); experiment: Minimum hemolytic concentration (MHC); assay type: cell-based
From the text: We also measured minimal hemolysis concentrations (MHC) on human red blood cells by serial 2-fold dilution as an indication of toxicity against eukaryotic cells (Table 1).

CC(C)C[C@H](NC(=O)[C@H](CCCCN)NC(=O)[C@@H](N)CCCCN)C(=O)N[C@@H](CC(C)C)C(=O)N[C@@H](CCCCN)C(=O)N(CC(=O)N(CC(=O)N(CCCCN)CC(=O)N(CC(=O)N(CC(=O)N(CC(N)=O)CC(C)C)CC(C)C)CC(C)C)CC(C)C)CC(C)C [EB4, KKLLKllklll] (H-KKLLK[Nleu][Nleu][Nlys][Nleu][Nleu][Nleu]-NH2)
CD %α with 5 mM DPC ([1]; DichroWeb, Contin-LL): 9% | CD %α with 20% TFE ([1]; DichroWeb, Contin-LL): 11% | CD %α with 5 mM DPC ([1]; Table S2): 9% | CD %α with 20% TFE ([1]; Table S2): 11% | MIC P. aeruginosa PAO1, full MH at pH 7.4 ([2]; PAO1, 4 h, pH 7.4): >32 ug/mL | MIC P. aeruginosa PAO1 […] 8.5 ([2]; Table S2, […] MH, pH 8.5): 4 µg/mL (≈ 3.03 µM) | MIC P. aeruginosa PAO1 Full MH 7.4 ([2]; Table S2, full MH, pH 7.4): > 32 µg/mL | MIC A. baumannii ATCC19606, full MH at pH 7.4 ([3]; ATCC19606, 4 h, pH 7.4): >32 ug/mL | MIC A. baumannii ATCC19606 […] 7.4 ([3]; Table S2, […] MH, pH 7.4): 32 µg/mL (≈ 24.2 µM) | MIC A. baumannii ATCC19606 […] 8.5 ([3]; Table S2, […] MH, pH 8.5): 16 µg/mL (≈ 12.1 µM) | MIC A. baumannii ATCC19606 Full MH 7.4 ([3]; Table S2, full MH, pH 7.4): > 32 µg/mL | MIC A. baumannii ATCC19606 Full MH 8.5 ([3]; Table S2, full MH, pH 8.5): 16 µg/mL (≈ 12.1 µM) | MIC P. aeruginosa PA14 2P4, […] MH at pH 8.5 [4]: 16 ug/mL | MIC P. aeruginosa PA14 4.18, […] MH at pH 8.5 ([5]; CSV): 24 ug/mL | MIC P. aeruginosa PA14 4.18 ([5]; Table S3): 16 to 32 µg/mL | MIC P. aeruginosa PA14 4.13, […] MH at pH 8.5 [6]: 8 ug/mL | MIC S. aureus COL (MRSA), full MH at pH 7.4 ([7]; COL, 4 h, pH 7.4): >32 ug/mL | MIC S. aureus COL (MRSA) […] 7.4 ([7]; Table S2, […] MH, pH 7.4): 32 µg/mL (≈ 24.2 µM) | MIC S. aureus COL (MRSA) Full MH 7.4 ([7]; Table S2, full MH, pH 7.4): > 32 µg/mL | MIC S. aureus COL (MRSA) Full MH 8.5 ([7]; Table S2, full MH, pH 8.5): 16 µg/mL (≈ 12.1 µM) | MIC K. pneumoniae NCTC418, full MH at pH 7.4 ([8]; NCTC418, 4 h, pH 7.4): >32 ug/mL | MIC K. pneumoniae NCTC418 […] 7.4 ([8]; Table S2, […] MH, pH 7.4): > 32 µg/mL | MIC K. pneumoniae NCTC418 […] 8.5 ([8]; Table S2, […] MH, pH 8.5): 32 µg/mL (≈ 24.2 µM) | MIC K. pneumoniae NCTC418 Full MH 7.4 ([8]; Table S2, full MH, pH 7.4): > 32 µg/mL | MIC K. pneumoniae NCTC418 Full MH 8.5 ([8]; Table S2, full MH, pH 8.5): 16 µg/mL (≈ 12.1 µM) | MIC E. coli W3110, […] MH at pH 7.4 ([9]; CSV, […] MH at pH 7.4): 8 ug/mL | MIC E. coli W3110, full MH at pH 7.4 ([9]; CSV, full MH at pH 7.4): >32 ug/mL | MIC E. coli W3110, full MH at pH 8.5 ([9]; CSV, full MH at pH 8.5): 8 ug/mL | MIC E. coli W3110 […] 7.4 ([9]; Table S2, […] MH, pH 7.4): 8 µg/mL (≈ 6.05 µM) | MIC E. coli W3110 […] 8.5 ([9]; Table S2, […] MH, pH 8.5): 2 µg/mL (≈ 1.51 µM) | MIC E. coli W3110 Full MH 7.4 ([9]; Table S2, full MH, pH 7.4): > 32 µg/mL | MIC E. coli W3110 Full MH 8.5 ([9]; Table S2, full MH, pH 8.5): 8 µg/mL (≈ 6.05 µM) | MIC S. aureus Newman [10]: 8 µg/mL (≈ 6.05 µM) | MIC P. aeruginosa PA14 [11]: 4 µg/mL (≈ 3.03 µM) | Hemolysis [12]: none of them showed any measurable hemolysis | MHC [12]: >2000 µg/mL
